Data on three substances can be found in US12466854B2, “Peptide useful for the transport of molecules through cell barriers” (UNIVERSITÉ GRENOBLE ALPES, priority 2022, dated 2025).

The test relates to mice. The test is described as follows: body temperature of mice after intravenous injection of peptides (hypothermia as reporter for crossing the BBB). It counts as in vivo. The note with it: 2.5 mmol/kg intravenously; for hypothermia (variation in body temperature): monitored over 90 minutes.

Experimental: Body temperature was monitored using Anipill® capsules previously implanted intraperitoneally.
The monitoring was carried out over 90 minutes.

On to “TAT-NT: reference cell penetration peptide TAT fused to neurotensin, GRKKRRQRRRPQRRPYIL (SEQ ID NO: 8), positive control [reference compound]”, for which the “time following injection at which hypothermia was observed” value is 30 min and the “hypothermia (variation in body temperature)” value is “approximately 1 degree Celsius”.

Take “TB peptide: cell penetrating peptide of amino acid sequence RQRIWFQNRRRSRKIKK (SEQ ID NO: 1)”: the “hypothermia (variation in body temperature)” value is “no signs of hypothermia”.

For the substance “TB-NT: TB peptide fused to neurotensin, sequence RQRIWFQNRRRSRKIKKRRPYIL (SEQ ID NO: 7)”, the “time following injection at which hypothermia was observed” value came to 35 min and the “hypothermia (variation in body temperature)” value was “approximately 3 degree Celsius”.
